Key:
[1] = system: F. oxysporum f. sp. cubense; experiment: Panama disease analysis of soil samples from the treated field (Komada medium); format: in vivo, Fusarium oxysporum f. sp. cubense Tropical Race 4; conditions: any of the treated groups (750-3000 L/ha); any day post application
Protocol: (§1) Metam Sodium Application. Metam sodium 510 SL (equivalent to 42% w/w) was applied to soil at the following doses: 0 liters per hectare (L/ha), 750 L/ha, 1500 L/ha, 2250 L/ha, 3000 L/ha.
(§2) Prior to injection, soil was prepared using a rototiller to break the soil structure from 0 cm to 80 cm deep, allowing for the smooth and even injection application by an injection machine. The soil was then leveled and made uniform, and the metam sodium was applied at two depths: 30 cm and 60 cm, using injection methods. The temperature was at a minimum of 10 °C and soil humidity was between 50 and 60% holding capacity, allowing the applied product to transform from metam sodium (liquid) to MITC (gas).
(§3) The application was made using an injection machine wherein the machine lowered shanks and began moving forward such that the shanks lowered to a depth of 60 cm and injectors applied the metam sodium into the soil. When the injection at 60 cm was complete, the process was repeated for the entire field at 30 cm. The treated soil in the field was then sealed using a packer roller (which was part of the injection machinery, located at the back end of the machine), after each application.
(§4) Soil Analysis. Soil samples were obtained at 20, 40, and 60 cm before application and every 24 hours beginning 48 hours after application, for seven days.
Plant Pathology Analysis. […]

Cavendish banana plants = experiment: Field trial: growth and development of banana plants transplanted into metam sodium treated soil; format: in vivo, Musa (Cavendish banana)
Protocol: The analyses described in this example were carried out in the Philippines in a field in which Musa trees (specifically bananas) were to be planted, in the spring (beginning in March). Final determinations were carried out in September of the same year.
as §1, §2, §3
Plant Selection and Transplantation. Cavendish banana plants were used for this investigation. In order to avoid plants already contaminated by other soil, all plants were produced in vitro using art-recognized methods. Plants were transplanted into the field 14 days after the final soil reading was taken (21 days after treatment).
Data Gathering. Data were gathered at monthly intervals beginning three months after banana plants were transplanted. A total of three data collection sessions were conducted. Data including the number of leaves, plant height, and girth size were collected.

Foc TR4 chlamydospores = experiment: In vitro efficacy of metam sodium on Foc TR4 chlamydospores (colonies on PDA plates); format: cell-based, Fusarium oxysporum f. sp. cubense Tropical Race 4
Protocol: Foc TR4 chlamydospores were extracted from infested soil and incubated with a dilution series of metam sodium for 5 min and 60 min at room temperature. Thereafter, the samples were diluted 10×to get reduction of the treatment and sufficient dilution of chlamydospores to avoid lack of resolution when grown on plate. Aliquots of 100 μl were plated on PDA plates in duplicate and incubated for 3 days at 25° C. Plates were photographed and scored.

parasitic nematodes = experiment: Nematode analysis of soil samples from the treated field; format: in vivo; conditions: any tested soil samples
Protocol: as §4
Plant Pathology Analysis. Soil samples used for Panama Disease and nematode analyses were aseptically isolated in culture medium and incubated for seven days at room temperature. Organisms were identified as follows: 20 grams of composite soil sample was diluted with 40 mL distilled water (dH2O); 1 drop of Tween 20 detergent was added, and the sample mixed. A 1 mL aliquot was taken from the solution and diluted with 9 mL dH2O; three further serial dilutions were made. From each dilution, 100 μL were spread on solid Komada growth medium (Sun et al., Phytopathology 68: 1672-1673, 1978). Growth could be seen 7 days after inoculation.

[2] = 750 L/ha, six months after treatment
[3] = 1500 L/ha, six months after treatment
[4] = 2250 L/ha, six months after treatment
[5] = 3000 L/ha, six months after treatment

CNC(=S)[S-].[Na+] [metam sodium, sodium N-methyldithiocarbamate]
Foc TR4 in soil (soil contamination) [1]: No Foc TR4 was detected | average girth size of banana plant, increase (Cavendish banana plants; 750 L/ha): ~1 cm | average height of banana plant, increase (Cavendish banana plants; 750 L/ha): ~5 cm | percent of plants at either shooting or bagging stage (Cavendish banana plants; [2]): 11% | percent of plants at shooting stage (Cavendish banana plants; [2]): 9% | plants reaching bagging stage (Cavendish banana plants; [2]): did not have a meaningful effect | average girth size of banana plant, increase (Cavendish banana plants; 1500-3000 L/ha): 4-6 cm | average height of banana plant, increase (Cavendish banana plants; 1500-3000 L/ha): 20-23 cm | percent of plants at either shooting or bagging stage (Cavendish banana plants; [3]): 28% | percent of plants at shooting stage (Cavendish banana plants; [3]): 10% | percent of plants at bagging stage (Cavendish banana plants; 1500 to 3000 L/ha, six months after treatment): 11-19% | percent of plants at either shooting or bagging stage (Cavendish banana plants; [4]): 27% | percent of plants at shooting stage (Cavendish banana plants; [4]): 17% | percent of plants at either shooting or bagging stage (Cavendish banana plants; [5]): 35% | percent of plants at shooting stage (Cavendish banana plants; [5]): 22% | average number of leaves, increase (Cavendish banana plants; regardless of dose applied (750-3000 L/ha), vs 0 L/ha): roughly 1.5 fold | reducing the number of surviving chlamydospores, measured as growing colonies (Foc TR4 chlamydospores; 100× dilution, prolonged incubation (60 vs 5 minutes)): more effective | efficacy on Foc TR4 colony growth on plates (Foc TR4 chlamydospores; dilution of 10×, incubation time 5 minutes): effective | efficacy on Foc TR4 colony growth on plates (Foc TR4 chlamydospores; dilution of 100×, 5 and 60 minutes): less effective | reduction in viability of Foc TR4 chlamydospores (Foc TR4 chlamydospores; first test, dilutions from 1000 up to 10×10^6-fold, 60 min): No significant reduction in viability | efficacy against Foc TR4 chlamydospores under in vitro conditions (Foc TR4 chlamydospores; overall, dependent on high concentrations): effective against Foc TR4 chlamydospores | efficacy on surviving chlamydospores (Foc TR4 chlamydospores; second test, 10× and 100× dilutions): (partially) effective | number of chlamydospores that survived (Foc TR4 chlamydospores; second test, dilutions of 1000× and more): did not affect the number of chlamydospores that survived | parasitic nematodes in soil (parasitic nematodes): no parasitic nematodes were noted

— patent publication US20230329237A1, “MUSA PLANTS, FIELDS […] PLANTS” (Taminco BV, priority 2020, published 2023)
